Source: US20220289766A1 (INFLAZOME LIMITED, priority 2019, published 2022)
Where a name gives a salt, the structure may show the parent alone.

Key:
NLRP3 [1] = target: T1, NLRP3 (Homo sapiens, UniProt Q96P20); test: THP-1 cells pyroptosis assay; format: cell-based; design: Seed THP-1 cells (25,000 cells/well) containing 1.0 μg/ml LPS in 40 μl of RPMI medium; host or cells: THP-1 cells; details: LPS 1 μg/ml, compound 3 hrs, nigericin 5 μM 1 hr, resazurin readout
Description: THP-1 cells (ATCC #TIB-202) were grown in RPMI containing L-glutamine (Gibco #11835) supplemented with 1 mM sodium pyruvate (Sigma #S8636) and penicillin (100 units/ml)/streptomycin (0.1 mg/ml) (Sigma #P4333) in 10% Fetal Bovine Serum (FBS) (Sigma #F0804). The cells were routinely passaged and grown to confluency (˜10^6 cells/ml). On the day of the experiment, THP-1 cells were harvested and resuspended into RPMI medium (without FBS). The cells were then counted and viability ([…]) checked by Trypan blue (Sigma #T8154). Appropriate dilutions were made to give a concentration of 625,000 cells/ml. To this diluted cell solution was added LPS (Sigma #L4524) to give a 1 μg/ml Final Assay Concentration (FAC). 40 μl of the final preparation was aliquoted into each well of a 96-well plate. The plate thus prepared was used for compound screening.
The following method step-by-step assay was followed for compound screening. • 1. Seed THP-1 cells (25,000 cells/well) containing 1.0 μg/ml LPS in 40 μl of RPMI medium (without FBS) in 96-well, black walled, clear bottom cell culture plates coated with poly-D-lysine (VWR #734-0317) • 2. Add 5 μl compound (8 points half-log dilution, with 10 μM top dose) or vehicle (DMSO 0.1% FAC) to the appropriate wells • 3. Incubate for 3 hrs at 37° C., 5% CO2 • 4. Add 5 μl nigericin (Sigma #N7143) (FAC 5 μM) to all wells • 5. Incubate for 1 hr at 37° C., 5% CO2 • 6. At the end of the incubation period, spin plates at 300×g for 3 mins and remove supernatant • 7. Then add 50 μl of resazurin (Sigma #R7017) (FAC 100 μM resazurin in RPMI medium without FBS) and incubate plates for a further 1-2 hrs at 37° C. and 5% CO2 • 8. Plates were read in an Envision reader at Ex 560 nm and Em 590 nm • 9. IC50 data is fitted to a non-linear regression equation (log inhibitor vs response-variable slope 4-parameters)

NLRP3 [2] = target: T1, NLRP3; test: Human whole blood IL-1β release assay; format: cell-based; design: Plate out 80 μl of whole blood containing 1 μg/ml of LPS in 96-well, clear bottom cell culture plate; from tissue; host or cells: human whole blood from healthy donors; details: LPS 1 μg/ml, compound 3 hrs, nigericin 10 μM 1 hr, IL-1β by AlphaLisa, read-out: HWB IC50
Description: For systemic delivery, the ability to inhibit NLRP3 when the compounds are present within the bloodstream is of great importance. For this reason, the NLRP3 inhibitory activity of a number of compounds in human whole blood was investigated in accordance with the following protocol.
Human whole blood in Li-heparin tubes was obtained from healthy donors from a volunteer donor panel. • 1. Plate out 80 μl of whole blood containing 1 μg/ml of LPS in 96-well, clear bottom cell culture plate (Corning #3585) • 2. Add 10 μl compound (8 points half-log dilution with 10 μM top dose) or vehicle (DMSO 0.1% FAC) to the appropriate wells • 3. Incubate for 3 hrs at 37° C., 5% CO2 • 4. Add 10 μl nigericin (Sigma #N7143) (10 μM FAC) to all wells • 5. Incubate for 1 hr at 37° C., 5% CO2 • 6. At the end of the incubation period, spin plates at 300×g for 5 mins to pellet cells and remove […] of supernatant and add to 96-well v-bottom plates for IL-1β analysis (note: these plates containing the supernatants can be stored at −80° C. to be analysed at a later date) • 7. IL-1β was measured according to the manufacturer protocol (Perkin Elmer-AlphaLisa IL-1 Kit AL220F-5000) • 8. IC50 data is fitted to a non-linear regression equation (log inhibitor vs response-variable slope 4-parameters)

T1 sequence (Q96P20 whole entry): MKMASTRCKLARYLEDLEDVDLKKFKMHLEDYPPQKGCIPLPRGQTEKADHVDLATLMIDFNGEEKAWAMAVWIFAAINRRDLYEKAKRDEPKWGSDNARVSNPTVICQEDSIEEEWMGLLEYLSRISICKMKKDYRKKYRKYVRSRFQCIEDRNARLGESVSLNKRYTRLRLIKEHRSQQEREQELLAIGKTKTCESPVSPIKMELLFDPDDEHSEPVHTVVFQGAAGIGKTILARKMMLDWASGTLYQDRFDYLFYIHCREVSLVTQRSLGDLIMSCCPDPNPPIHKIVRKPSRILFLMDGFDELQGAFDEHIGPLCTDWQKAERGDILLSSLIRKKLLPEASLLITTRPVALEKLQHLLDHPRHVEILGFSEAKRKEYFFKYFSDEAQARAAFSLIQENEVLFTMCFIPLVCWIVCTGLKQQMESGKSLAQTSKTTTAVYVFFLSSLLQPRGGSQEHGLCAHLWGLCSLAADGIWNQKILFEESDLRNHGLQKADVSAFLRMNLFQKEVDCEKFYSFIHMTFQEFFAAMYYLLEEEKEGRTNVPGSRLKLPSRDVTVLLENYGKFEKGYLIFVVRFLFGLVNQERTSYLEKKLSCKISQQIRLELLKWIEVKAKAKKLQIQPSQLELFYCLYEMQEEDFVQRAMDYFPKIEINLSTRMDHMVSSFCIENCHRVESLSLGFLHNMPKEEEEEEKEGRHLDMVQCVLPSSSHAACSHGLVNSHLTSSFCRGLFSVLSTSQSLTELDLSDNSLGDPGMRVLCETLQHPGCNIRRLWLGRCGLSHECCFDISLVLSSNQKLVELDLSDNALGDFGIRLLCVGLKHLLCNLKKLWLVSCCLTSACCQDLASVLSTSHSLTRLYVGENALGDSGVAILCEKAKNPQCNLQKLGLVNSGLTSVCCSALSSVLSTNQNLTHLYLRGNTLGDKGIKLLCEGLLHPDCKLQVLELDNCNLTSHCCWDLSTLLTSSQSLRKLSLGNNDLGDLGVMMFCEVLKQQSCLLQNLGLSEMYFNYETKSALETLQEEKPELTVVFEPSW

| SMILES | IC50 (NLRP3 [1]) [nM] | IC50 (NLRP3 [2]) [nM] |
| --- | --- | --- |
| CC1(C)COc2cc(ccn2)-c2c(F)cc3c(c2NC(=O)NS(=O)(=O)c2ccn1n2)CCC3 [Example 34, 3-fluoro-19,19-dimethyl-21-oxa-14λ^6-thia-11,13,18,23,27-pentaazapentacyclo-[20.3.1.1^15,18.0^2,10.0^5,9]heptacosa-1(25),2,4,9,15(27),16,22(26),23-octaene-12,14,14-trione] | ≤ 100 | 100 to 500 |
| Cc1cc2cc(n1)OCC(C)(C)n1ccc(n1)S(=O)(=O)NC(=O)Nc1c-2ccc2c1CCC2 [Example 36, 19,19,24-trimethyl-21-oxa-14λ^6-thia-11,13,18,23,27-pentaazapentacyclo-[20.3.1.1^15,18.0^2,10.0^5,9]heptacosa-1(26),2,4,9,15(27),16,22,24-octaene-12,14,14-trione] | ≤ 100 | 500 to 1000 |
| Cc1cc2c(c3c1-c1ccnc(c1)OCC(C)(C)n1ccc(n1)S(=O)(=O)NC(=O)N3)CCO2 [Example 37, 3,19,19-trimethyl-6,21-dioxa-14λ^6-thia-11,13,18,23,27-pentaaza-pentacyclo[20.3.1.1^15,18.0^2,10.0^5,9]-heptacosa-1(25),2(10),3,5(9),15(27),16,22(26),23-octaene-12,14,14-trione, sodium salt] | ≤ 100 | ≤ 100 |
| CC1(C)COc2cc(c(F)cn2)-c2ccc3c(c2NC(=O)NS(=O)(=O)c2ccn1n2)CCC3 [Example 38, 25-fluoro-19,19-dimethyl-21-oxa-14λ^6-thia-11,13,18,23,27-pentaaza-pentacyclo[20.3.1.1^15,18.0^2,10.0^5,9]-heptacosa-1(25),2,4,9,15(27),16,22(26),23-octaene-12,14,14-trione, sodium salt] | 100 to 500 | 1000 to 5000 |
| O=C1Nc2c(ccc3c2CCC3)-c2ccnc(c2)OCC2(CCOCC2)n2ccc(n2)S(=O)(=O)N1 [Example 39, 21′-oxa-14′λ^6-thia-11′,13′,18′,23′,27′-pentaaza-spiro[oxane-4,19′-pentacyclo-[20.3.1.1^15,18.0^2,10.0^5,9]-heptacosan]-1′(25′),2′,4′,9′,15′(27′),16′,22′(26′),23′-octaene-12′,14′,14′-trione] | ≤ 100 | 100 to 500 |
| O=C1Nc2c3c(cc(F)c2-c2ccnc(c2)OCCn2cc(F)c(n2)S(=O)(=O)N1)CCC3 [Example 40, 3,16-difluoro-21-oxa-14λ^6-thia-11,13,18,23,27-pentaaza-pentacyclo[20.3.1.1^15,18.0^2,10.0^5,9]-heptacosa-1(25),2(10),3,5(9),15(27),16,22(26),23-octaene-12,14,14-trione] | ≤ 100 | 100 to 500 |
| CC1(C)COc2cc(ccn2)-c2c(F)cc3c(c2NC(=O)NS(=O)(=O)c2nn1cc2F)CCC3 [Example 41, 3,16-difluoro-19,19-dimethyl-21-oxa-14λ^6-thia-11,13,18,23,27-pentaazapentacyclo-[20.3.1.1^15,18.0^2,10.0^5,9]heptacosa-1(25),2,4,9,15(27),16,22(26),23-octaene-12,14,14-trione, sodium salt] | ≤ 100 | 100 to 500 |
| O=C1Nc2c(ccc3c2CCC3)-c2cc(F)nc(c2)OCCn2cc(F)c(n2)S(=O)(=O)N1 [Example 42, 16,24-difluoro-21-oxa-14λ^6-thia-11,13,18,23,27-pentaazapentacyclo-[20.3.1.1^15,18.0^2,10.0^5,9]heptacosa-1(26),2,4,9,15(27),16,22,24-octaene-12,14,14-trione] | ≤ 100 | 100 to 500 |
| CC(C)c1cc(F)cc2c1NC(=O)NS(=O)(=O)c1ccn(n1)C(C)(C)COc1cc-2ccn1 [Example 43, 4-fluoro-16,16-dimethyl-6-(propan-2-yl)-18-oxa-11λ^6-thia-8,10,15,20,24-pentaazatetracyclo-[17.3.1.1^12,15.0^2,7]tetracosa-1(22),2(7),3,5,12(24),13,19(23),20-octaene-9,11,11-trione] | 100 to 500 | 100 to 500 |
| CC(C)c1cc(F)cc2c1NC(=O)NS(=O)(=O)c1nn(cc1F)CCOc1cc-2ccn1 [Example 44, 4,13-difluoro-6-(propan-2-yl)-18-oxa-11λ^6-thia-8,10,15,20,24-pentaazatetracyclo[17.3.1.1^12,15.0^2,7]-tetracosa-1(22),2(7),3,5,12(24),13,19(23),20-octaene-9,11,11-trione, sodium salt] | ≤ 100 | 100 to 500 |
| Cc1c2ccnc1OCC(C)(C)n1ccc(n1)S(=O)(=O)NC(=O)Nc1c-2ccc2c1CCC2 [Example 45, 19,19,26-trimethyl-21-oxa-14λ^6-thia-11,13,18,23,27-pentaaza-pentacyclo[20.3.1.1^15,18.0^2,10.0^5,9]-heptacosa-1(25),2,4,9,15(27),16,22(26),23-octaene-12,14,14-trione, sodium salt] | 1000 to 5000 | 1000 to 5000 |
| O=C1Nc2c(ccc3c2CCC3)-c2ccnc(c2)OC2CCC(C2)Cn2ccc(n2)S(=O)(=O)N1 (centres unmarked) [Example 46, 24-oxa-14λ^6-thia-11,13,18,26,31-pentaazahexacyclo-[23.3.1.1^15,18.1^20,23.0^2,10.0^5,9]hentriaconta-1(28),2,4,9,15(31),16,25(29),26-octaene-12,14,14-trione] | 1000 to 5000 | 1000 to 5000 |
| CC(C)c1cnn2c1NC(=O)NS(=O)(=O)c1nn(cc1F)C(C)(C)COc1cc-2ccn1 [Example 47, 12-fluoro-15,15-dimethyl-5-(propan-2-yl)-17-oxa-10λ^6-thia-2,3,7,9,14,19,23-heptaazatetracyclo-[16.3.1.1^11,14.0^2,6]tricosa-1(21),3,5,11(23),12,18(22),19-heptaene-8,10,10-trione] | 500 to 1000 | 500 to 1000 |
